Results reported in patent US6835819B2, “Sequences and their use” (Metcon Medicin AB, priority 2000, dated 2004).

Legend:
Format in all cases: cell-based, mouse
IRS-2 mRNA = IRS-2 mRNA expression (Northern blots) in differentiated 3T3-L1 adipocytes; settings: for effect on IRS-2 gene expression: FIG. 2: 10 μM darglitazone with 100 nM insulin, 10 μM WY14643 with or without insulin, 100 nM progesterone, 200 μM 8-BrcAMP
Protocol: (§1) 3T3-L1 fibroblasts were grown and differentiated into adipocytes according to Rubin et al., 1977). At least 90% of the cells had acquired the adipocyte phenotype 6 days after initiating differentiation. Eight days after differentiation, the medium was changed and the various agents added for the times indicated in the Results.
(§2) Total cellular RNA was isolated from cells with guanidinium thiocyanate, as described (Chirgwin et al. 1979). Northern blot analyses were performed on total cellular RNA (30 μg) with labeled cDNA probes made against β-actin as housekeeping gene, mouse IRS-1 (bp 1333-2335) and mouse IRS-2 (bp 2987-3325) (kindly provided by Drs. J. Pierce and L-M Wang, NCI, NIH), rodent GLUT4 (bp 121-2128, Accession Nr NM 001042, kindly provided by Dr. Sam W. Cushman, NIDDK, NIH) and PKB/Akt using a PCR fragment against PKBβ (bp 282-1130, Accession Nr M95936) in a common sequence for PKBα, PKBβ and PKBγ. 5′ sequence […] and 3′ sequence […] were used as PCR primers (SEQ. ID. NO. 13 and 14, respectively).

IRS-1 mRNA = IRS-1 mRNA expression (Northern blots) in differentiated 3T3-L1 adipocytes; settings: 48 hrs; insulin alone or combined with PPARγ ligand; same experiments as IRS-2
Protocol: as §1, §2

PKB/Akt mRNA = PKB/Akt mRNA expression (Northern blots) in differentiated 3T3-L1 adipocytes; settings: 48 hrs; insulin alone or combined with PPARγ ligand; same experiments as IRS-2
Protocol: as §1, §2

IRS-2 protein = IRS-2 protein expression (immunoblot) in differentiated 3T3-L1 cells
Protocol: (§3) 3T3-L1 fibroblasts were grown and differentiated into adipocytes according to Rubin et al., 1977). At least 90% of the cells had acquired the adipocyte phenotype 6 days after initiating differentiation. Eight days after differentiation, the medium was changed and the various agents added for the times indicated in the Results. Cell lysates were prepared as described by Rondinone et al. 1997. Equal amounts of protein were separated by SDS/PAGE, transferred and immunoblotted with appropriate antibodies against the specific proteins. Phosphotyrosines were immunoblotted with antibody PY99 (Transduction Laboratories, Lexington, N.Y.), GLUT4 with an antibody kindly provided by Dr. Sam W. Cushman (NIDDK, NIH), IRS-1 and IRS-2 with antibodies from Upstate Biotechnology, Inc. (Lake Placid, N.Y.) and PKB/Akt with antibodies from Biolab (Boston, Mass.). Immunoprecipitations were performed as described (Rondinone et at., 1997) and individual proteins were detected by blotting with horseradish peroxidase-linked secondary antibodies and using enhanced chemiluminescence (Nycomed Amersham plc., UK).

IRS-1 protein = IRS-1 protein expression (immunoblot) in differentiated 3T3-L1 cells
Protocol: as §3

PKB/Akt protein = PKB/Akt protein expression in differentiated 3T3-L1 cells; settings: pioglitazone and/or insulin for 48 hrs
Protocol: as §3

PKB/Akt phosphorylation = assay: Acute insulin-stimulated PKB/Akt phosphorylation (immunoblot) in pre-cultured 3T3-L1 adipocytes; settings: cells cultured with agent alone for 48 hrs, serum-starved 3 hrs, then 100 nM insulin 10 min
Protocol: Lysates were prepared from cells that had been cultured for 48 hrs as in FIG. 3A, serum-starved for 3 hrs, and then stimulated with 100 nM insulin for 10 min. Following separation on 7.5% SDS-PAGE, the proteins were immunoblotted with antibodies recognizing insulin-stimulated phosphoserine (PS-PKB) and phosphothreonine (PThr-PKB) PKB/Akt.
To study the acute effect of insulin, the cells were serum-deprived for 3 hrs before adding 100 nM insulin for 15 min.
The present inventor also examined the acute effect of insulin on down-stream activation of PKB/Akt in cells that had been cultured with pioglitazone for 48 hrs, washed and serum-starved for 3 hrs in fresh medium. […] Insulin (100 nM) was then added for 10 min to the serum-starved cells.

Q: How did the “effect on IRS-2 gene expression” value (IRS-2 mRNA; 48 hrs) turn out when `Nc1ncnc2c1nc(Br)n2[C@@H]1O[C@@H]2COP(=O)(O)O[C@H]2[C@H]1O` [8-BrcAMP] was run?
A: no effects were seen

Q: For `Cc1cccc(Nc2cc(Cl)nc(SCC(=O)O)n2)c1C` [WY14643], which “average increase of IRS-2 mRNA expression” value (IRS-2 mRNA; 10 μM, n=2, also when insulin was added (FIG. 2 middle)) is on record?
A: 9%

Q: And the “effect on IRS-2 gene expression” value (IRS-2 mRNA; 48 hrs)?
A: completely without effect

Q: What about the “gene expression of IRS-1” value (IRS-1 mRNA) of the same molecule?
A: no effect was seen

Q: And the “gene expression of PKB/Akt” value (PKB/Akt mRNA)?
A: no effect was seen

Q: `Cc1oc(-c2ccccc2)nc1CCC(=O)c1ccc(CC2SC(=O)NC2=O)cc1` (stereo not drawn) [darglitazone] was tested. Which “gene expression of IRS-1” value (IRS-1 mRNA) did it give?
A: Neither insulin alone nor when combined with the PPARγ ligands, pioglitazone or darglitazone (not shown), altered

Q: What about the “gene expression of PKB/Akt” value (PKB/Akt mRNA) of the same molecule?
A: Neither insulin alone nor when combined with the PPARγ ligands, pioglitazone or darglitazone (not shown), altered

Q: Which “average increase of IRS-2 mRNA expression” value (IRS-2 mRNA; 1 μM, n=2) does the source give for `CCc1ccc(CCOc2ccc(CC3SC(=O)NC3=O)cc2)nc1` (stereo not drawn) [pioglitazone] here?
A: 230%

Q: What about the “increase of IRS-2 mRNA” value (IRS-2 mRNA; 10 μM pioglitazone in combination with 100 nM insulin, 48 hrs (FIG. 1A top)) of the same molecule?
A: ~4 fold

Q: And the “average increase of IRS-2 mRNA expression” value (IRS-2 mRNA; 10 μM, same experiments as 1 μM, n=2)?
A: 292%

Q: And the “increase of IRS-2 mRNA levels relative to β-actin mRNA” value (IRS-2 mRNA; after 48 hrs, 5 experiments (FIG. 1B top))?
A: 3-5 fold

Q: What about the “average increase of IRS-2 protein expression” value (IRS-2 protein; after 48 hrs) of the same molecule?
A: 36%

Q: What about the “change of IRS-1 protein expression” value (IRS-1 protein; insulin and pioglitazone combined, three experiments, range 18-39%) of the same molecule?
A: −31%

Q: What about the “change of IRS-1 protein expression” value (IRS-1 protein; pioglitazone alone, three experiments) of the same molecule?
A: +7%

Q: How did the “effect on IRS-2 gene expression” value (IRS-2 mRNA; 48 hrs) turn out when `CC(=O)[C@H]1CC[C@H]2[C@@H]3CCC4=CC(=O)CC[C@]4(C)[C@H]3CC[C@]12C` [progesterone] was run?
A: no effects were seen

Q: For insulin, which “further increase of IRS-2 mRNA by addition of insulin to pioglitazone” value (IRS-2 mRNA; 100 nM insulin added to 10 μM pioglitazone, 48 hrs (FIG. 1A bottom)) is on record?
A: no further increase

Q: And the IRS-2 gene expression (IRS-2 mRNA; insulin alone (100 nM), 48 hrs)?
A: did not change

Q: What about the IRS-2 protein expression (IRS-2 protein; 48 hrs, 10 μM pioglitazone or 100 nM insulin (FIG. 1B bottom)) of the same molecule?
A: not changed

Q: What about the “gene expression of IRS-1” value (IRS-1 mRNA) of the same molecule?
A: Neither insulin alone nor when combined with the PPARγ ligands, pioglitazone or darglitazone (not shown), altered

Q: And the “gene expression of PKB/Akt” value (PKB/Akt mRNA)?
A: Neither insulin alone nor when combined with the PPARγ ligands, pioglitazone or darglitazone (not shown), altered

Q: What about the “decrease of IRS-1 protein expression” value (IRS-1 protein; insulin alone, three experiments, range 25-39%) of the same molecule?
A: 33%

Q: And the IRS-1 protein expression (IRS-1 protein; pioglitazone alone or insulin alone, chronic (FIG. 3B bottom))?
A: reduced

Q: And the PKB/Akt protein expression (PKB/Akt protein)?
A: not changed

Q: And the “acute effect of insulin on PKB/Akt phosphorylation” value (PKB/Akt phosphorylation)?
A: markedly reduced
